Experiments:
[1] = test system: Bifidobacterium longum subspecies longum BB536; test: Mix-culturing with Bifidobacterium bifidum by HMO as sugar source, quantitative PCR; assay type: cell-based; conditions: for Proliferation rate (number of bacteria after mix-culturing for 8 h/number of bacteria after single bacterial culturing): BB536 mix-cultured with Bifidobacterium bifidum (NITE BP-02429), sugar source 2%, Table 8; for Proliferation rate of BB536 (mix-cultured bacteria after 8 h/single bacterial culturing 8 h): Table 9; for proliferation of BB536 through mix-culturing with bacteria belonging to Bifidobacterium bifidum: summary of Table 9
Protocol: (§1) A10% solution of glucose (manufactured by Nakarai Tesque Inc.), and 2′-FL ((≥95%) Funakoshi, available from sigma), and LNnT (manufactured by ELICITYL) as examples of HMOs was prepared with ion exchanged water, and was subjected to sterile filtration using Millex-GV (SLGV033RS).
(§2) Lactobacilli MRS Broth (BD) (0.05% L-Cysteine Hydrochloride for Bacteria of the genus Bifidobacterium) was added to strains of Table 1 below (bacteria belonging to Bifidobacterium bifidum) and Table 2 below. After a sterilization treatment, 3% of the bacterial solution was inoculated, and anaerobically cultured (pre-pre cultured) at 37° C. for 16 h.
(§3) The following day, 1% glucose was added to a modified BL agar medium (“Studies on Bifidobacteria” by Tomotari Mitsuoka, p. 306, Japan Bifidus Foundation, issued in 1994) noted in Table 3, for preparation. After a sterilization treatment, 3% of the pre-pre cultured bacterial solution was inoculated, and anaerobically pre-cultured (pre-cultured) at 37° C. for 12 h.
(§4) The pre-cultured bacterial solution was collected and washed once with a sterile physiological saline solution. Then, mass-up was performed to an equal volume with the modified BL agar medium (“Studies on Bifidobacteria” by Tomotari Mitsuoka, p. 306, Japan Bifidus Foundation, issued in 1994) noted in Table 3 to prepare a suspended bacterial solution.
(§5) The modified BL agar medium (“Studies on Bifidobacteria” by Tomotari Mitsuoka, p. 306, Japan Bifidus Foundation, issued in 1994) noted in Table 3 was prepared at a capacity of 60%, and was subjected to an autoclave sterilization treatment. Then, 40% of each sugar solution prepared in (1) was aseptically added so as to prepare a medium with a sugar concentration of 4%.
The medium prepared in the above (3) was dispensed at a capacity that is half the capacity for aseptic culturing in a 96-well plate, and each of the bacterial solutions of strains of bacteria belonging to Bifidobacterium bifidum in Table 1 and probiotics having a low ability to assimilate human milk oligosaccharides in Table 2, which was prepared in the above (2), was dispensed at a remaining […] capacity into the medium prepared in the above (3) such that the bacterial solution had 12%. Then, a final sugar concentration was set to 2%. The plate into which the bacterial solution was dispensed was anaerobically cultured at 37° C. for 8 h.
(§6) OD650 was measured from each well in the plates in the above (4) and the above (5) before (0 h) culturing and after (8 h) culturing, by MICROPLATE READER SH-9000 (manufactured by CORONA ELECTRIC). After turbidity measurement, microbial cells were collected, and DNA extraction was performed. After the DNA extraction, the number of proliferating bacteria of Bifidobacteria/lactobacilli was analyzed by using the bacterial species-specific primer noted in Table 4, by a quantitative PCR method (see “Structural analysis of intestinal flora”—analysis of bacterial flora in human feces using quantitative PCR—by Kouichi Watanabe, Enterobacteriological journal, 20:35-42, 2006).
It was decided to culture Bifidobacterium bifidum (NITE BP-02429) in which availability of 2′-FL or LNnT was found as described above, in combination with strains in Table 2, which cannot use 2′-FL or LNnT. Bifidobacterium bifidum (NITE BP-02429) and the strains in Table 2, which cannot use 2′-FL or LNnT, were mix-cultured by 2′-FL or LNnT as a sugar source, and after culturing for 8 h, the proliferation rate of the number of bacteria of each strain (proliferation rate=the number of bacteria after mix-culturing for 8 h/the number of bacteria after single bacterial culturing) was measured by a quantitative PCR method using each strain-specific oligonucleotide primer noted in Table 4, for the strain in Table 2.
Seven strains of Bifidobacterium bifidum in Table 1 and Bifidobacterium longum subspecies longum BB536 which cannot use 2′-FL or LNnT were mix-cultured by 2′-FL or LNnT as a sugar source. […]

[2] = test system: Bifidobacterium peseudocatenulatum ATCC27919; test: Single bacterial culturing with HMO as sugar source, OD650; assay type: cell-based, Bifidobacterium pseudocatenulatum; conditions: ATCC 27919^T, sugar source 2%, 8 h, Table 6
Protocol: as §1
as §2, with “h. […]” for “h.”
OD650 was measured from each well in the plates in the above (4) and the above (5) before (0 h) culturing and after (8 h) culturing, by MICROPLATE READER SH-9000 (manufactured by CORONA ELECTRIC). […] After the DNA extraction, the number of proliferating bacteria of Bifidobacteria/lactobacilli was analyzed by using the bacterial species-specific primer noted in Table 4, by a quantitative PCR method (see “Structural analysis of intestinal flora”—analysis of bacterial flora in human feces using quantitative PCR—by Kouichi Watanabe, Enterobacteriological journal, 20:35-42, 2006).
Regarding strains in Table 2, each strain was cultured as a single bacterium by 2′-FL or LNnT (HMOs) as a sugar source, and OD650 was measured. […]

[3] = test system: Bifidobacterium adolescentis ATCC15703; test: as above; assay type: cell-based; conditions: ATCC 15703^T, sugar source 2%, 8 h, Table 6
Protocol: as §1, §2, §3, §4, §5
(§7) The medium prepared in the above (3) was dispensed at a capacity that is half the capacity for culturing in a 96-well plate, and the bacterial solution prepared in the above (2) was dispensed at a remaining half capacity such that the bacterial solution had 6%. Then, a final sugar concentration was set to 2%. The plate into which the bacterial solution was dispensed was anaerobically cultured at 37° C. for 8 h.
as §6
(§8) Regarding strains in Table 2, each strain was cultured as a single bacterium by 2′-FL or LNnT (HMOs) as a sugar source, and OD650 was measured. The results for 2′-FL are noted in Table 6 below, and the results for LNnT are noted in Table 7 below.

[4] = test system: Lactobacillus gasseri ATCC33323; test: as above; assay type: cell-based; conditions: ATCC 33323^T, sugar source 2%, 8 h, Table 6
Protocol: as §1, §2, §3, §4, §5, §7, §6, §8

[5] = test system: Bifidobacterium longum subsp infantis ATCC15697; test: as above; assay type: cell-based; conditions: ATCC 156971, sugar source 2%, 8 h, Table 6
Protocol: as §1, §2, §3, §4, §5, §7, §6, §8

[6] = test system: Lactobacillus rhamnosus ATCC7469; test: as above; assay type: cell-based; conditions: ATCC 7469^T, sugar source 2%, 8 h, Table 6
Protocol: as §1, §2, §3, §4, §5, §7, §6, §8

[7] = test system: Bifidobacterium breve ATCC15700; test: as above; assay type: cell-based; conditions: sugar source 2%, 8 h, Table 6
Protocol: as §1, §2, §3, §4, §5, §7, §6, §8

[8] = test system: Bifidobacterium animalis subsp lactis DSM10140; test: as above; assay type: cell-based; conditions: DSM 101407, sugar source 2%, 8 h, Table 6
Protocol: as §1, §2, §3, §4, §5, §7, §6, §8

[9] = test system: Bifidobacterium longum subsp longum ATCC15707; test: as above; assay type: cell-based; conditions: ATCC 15707^T, sugar source 2%, 8 h, Table 6
Protocol: as §1, §2, §3, §4, §5, §7, §6, §8

[10] = test system: Lactobacillus plantarum ATCC14917; test: as above; assay type: cell-based; conditions: ATCC 14917^T, sugar source 2%, 8 h, Table 6
Protocol: as §1, §2, §3, §4, §5, §7, §6, §8

[11] = test system: Bifidobacterium pseudolongum ATCC25526; test: as above; assay type: cell-based; conditions: ATCC 25526^T, sugar source 2%, 8 h, Table 6
Protocol: as §1, §2, §3, §4, §5, §7, §6, §8

[12] = test system: Bifidobacterium longum subsp longum BB536; test: as above; assay type: cell-based; conditions: sugar source 2%, 8 h, Table 7
Protocol: as §1, §2, §3, §4, §5, §7, §6, §8

[13] = test system: Bifidobacterium animalis subsp lactis MCC-525; test: as above; assay type: cell-based; conditions: sugar source 2%, 8 h, Table 7
Protocol: as §1, §2, §3, §4, §5, §7, §6, §8

[14] = mix-cultured with Bifidobacterium bifidum ATCC 29521^T
[15] = mix-cultured with Bifidobacterium bifidum NITE BP-1252
[16] = mix-cultured with Bifidobacterium bifidum NITE BP-02429
[17] = mix-cultured with Bifidobacterium bifidum NITE BP-02431
[18] = mix-cultured with Bifidobacterium bifidum NITE BP-02432
[19] = mix-cultured with Bifidobacterium bifidum NITE BP-02433
[20] = mix-cultured with Bifidobacterium bifidum NITE P-02648

Row | Molecule | Proliferation rate (number of bacteria after mix-culturing for 8 h/number of bacteria after single bacterial culturing) [1] | Proliferation rate of BB536 (mix-cultured bacteria after 8 h/single bacterial culturing 8 h) [1, 14] | Proliferation rate of BB536 (mix-cultured bacteria after 8 h/single bacterial culturing 8 h) [1, 15] | Proliferation rate of BB536 (mix-cultured bacteria after 8 h/single bacterial culturing 8 h) [1, 16] | Proliferation rate of BB536 (mix-cultured bacteria after 8 h/single bacterial culturing 8 h) [1, 17] | Proliferation rate of BB536 (mix-cultured bacteria after 8 h/single bacterial culturing 8 h) [1, 18] | Proliferation rate of BB536 (mix-cultured bacteria after 8 h/single bacterial culturing 8 h) [1, 19] | Proliferation rate of BB536 (mix-cultured bacteria after 8 h/single bacterial culturing 8 h) [1, 20] | proliferation of BB536 through mix-culturing with bacteria belonging to Bifidobacterium bifidum [1] | also measured
1 | 2′-fucosyllactose [2′-FL] | 4.30 | 1.35 | 3.17 | 4.13 | 6.33 | 3.16 | 5.90 | 9.97 | proliferates | OD650 increase value [2]: 0.02; OD650 increase value [3]: −0.01; OD650 increase value [4]: −0.017; OD650 increase value [5]: 0.344; OD650 increase value [6]: 0.058; OD650 increase value [7]: 0.041; OD650 increase value [8]: 0.027; OD650 increase value [9]: 0.029; OD650 increase value [10]: 0.013; OD650 increase value [11]: 0.022
2 | CC(=O)N[C@H]1[C@H](O[C@H]2[C@@H](O)[C@@H](CO)O[C@@H](O[C@H]3[C@H](O)[C@@H](O)C(O)O[C@@H]3CO)[C@@H]2O)O[C@H](CO)[C@@H](O[C@@H]2O[C@H](CO)[C@H](O)[C@H](O)[C@H]2O)[C@@H]1O (mixture of isomers) [LNnT, lacto-N-neotetraose] | 2.13 | 1.07 | 1.64 | 3.57 | 3.02 | 1.51 | 3.08 | 4.95 | proliferates | OD650 increase value [12]: 0.053; OD650 increase value [13]: 0.096
